What all share (type): biochemical
What all share (settings): thiopeptolide substrate Ac-Pro-Leu-Gly-thioester-Leu-Leu-Gly-OEt

The target in assay [1] is MMP-2CD (gelatinase A catalytic domain) (Homo sapiens, UniProt P08253). As to the kind of experiment: MMP-2CD inhibition, thiopeptolide substrate. On the procedure:
(§1) Experiments were carried out with the catalytic domains of the proteinases. […] IC50 values were determined using a thiopeptolide substrate, Ac-Pro-Leu-Gly-thioester-Leu-Leu-Gly-OEt (Ye Q.-Z., Johnson L. L., Hupe D. J., and Baragi V., “Purification and Characterization of the Human Stromelysin Catalytic Domain Expressed in Escherichia coli”, Biochemistry, 1992;31:11231-11235).

Assay [2] addresses T1, MMP-3CD (stromelysin-1 catalytic domain) (Homo sapiens, UniProt P08254).
T1 construct: Experiments were carried out with the catalytic domains of the proteinases
As to the kind of experiment: MMP-3CD inhibition, thiopeptolide substrate. On the procedure:
as §1

For assay [3], the target named is T2, MMP-13CD (collagenase-3 catalytic domain) (Homo sapiens, UniProt P45452).
T2 construct: Experiments were carried out with the catalytic domains of the proteinases
As to the kind of experiment: MMP-13CD inhibition, thiopeptolide substrate. On the procedure:
as §1

Each structure is given as a SMILES string.

T1 sequence (P08254 100-272 limits assumed): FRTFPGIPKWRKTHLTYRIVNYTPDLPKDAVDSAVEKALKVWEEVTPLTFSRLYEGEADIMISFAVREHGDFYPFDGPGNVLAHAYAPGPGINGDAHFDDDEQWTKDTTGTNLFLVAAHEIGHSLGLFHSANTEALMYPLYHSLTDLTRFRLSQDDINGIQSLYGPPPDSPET

The IC50 is the concentration needed to halve the response being measured. As to `O=C(O)CCC(=O)c1ccc(-c2ccc(Cl)s2)cc1` [Example 2, 4-[4-(5-Chloro-thiophen-2-yl)-phenyl]-4-oxo-butyric Acid], the results for the IC50 in assay [1], in assay [2] and in assay [3] were 63.9 nM, 298 nM and 1100 nM, respectively.
For `O=C(O)CCC(=NO)c1ccc(-n2cccn2)cc1` [Example 1, 4-Hydroxyimino-4-(4-pyrazol-1-yl-phenyl)butyric Acid], in that order: 1250 nM, 13000 nM and 10600 nM.
For `O=C(O)CCC(=NO)c1ccc(-c2ccc(Cl)s2)cc1` [Example 3], in that order: 14 nM, 105 nM and 120 nM.
